For series [1], the system named is DLD1 Human Colon Carcinoma. Nature of the series: Human tumor xenograft test, DLD1 colon carcinoma. Format: in vivo, athymic mice. The settings on record: for T/C on day 0 / T/C on day 7 / T/C on day 14: schedule days 1, 7, DLD1.
The test system of series [2] is U87-MG Human Glioblastoma. Kind of series: Human tumor xenograft test, U87-MG glioblastoma. Format: in vivo, athymic mice. As to conditions: for T/C on day 0 / T/C on day 3 / T/C on day 7 / T/C on day 10: schedule day 1, U87-MG. For orientation: Xenograft models place foreign cells or tissue in a host animal.
Series [3] relates to highly purified tubulin (tubulin heterodimer). Nature of the series: Competitive binding test, [3H]vinblastine. Set-up: species or system bovine. As to conditions: competitor 100 μM, [3H]vinblastine 100 nM, percent of binding to control without competitor. The protocol: (§1) Medium is RPMI-1640 with L-glutamine, supplemented with 10% heat-inactivated fetal calf serum, 100 units/mL penicillin, and 100 μg/mL streptomycin (Gibco, Grand Island, N.Y.). Microtubule-associated protein (MAP)-rich tubulin, containing about 70% tubulin and 30% MAPs (#ML113), and highly purified tubulin (>99% pure, #TL238), both from bovine brain, are obtained from Cytoskeleton, Inc., Denver, Colo. PEM buffer (80 mM piperazine-N,N′-bis[2-ethanesulfonic acid], pH 6.9, 1 mM ethylene glycol-bis(β-aminoethyl ether)-N,N,N′,N′-tetraacetic acid, 1 mM magnesium chloride) and guanosine 5′-triphosphate (GTP) are also obtained from Cytoskeleton. […] [^3H]vinblastine, specific activity 9.60 Ci/mmol and MicroSpin G-50 columns are obtained from Amersham Biosciences (Piscataway, N.J.). […] Other reagents are obtained from Sigma (St. Louis, Mo.).
(§2) The binding of examples of this invention to highly purified tubulin is studied by competitive inhibition methods.
(§3) These solutions are incubated at 24° for 1 hr and then applied to MicroSpin G-50 columns which are centrifuged for 2 min at 3000 rpm in an Eppendorf 5415C microfuge. An aliquot of each column effluent (containing tubulin and bound radioligand) is mixed with scintillation fluid and counted in a liquid scintillation spectrometer. […] Quadruplicates are averaged, and the ability of the competitor to inhibit the binding of the radioligand is expressed as a percentage of control binding in the absence of any competitor.

For series [4] the test system is unchanged. Nature of the series: Competitive binding test, [3H]colchicine. Set-up: species or system bovine. As to conditions: competitor 100 μM, [3H]colchicine 50 nM, percent of binding to control without competitor. As to the method: as §1, §2, §3
In series [5] the test system is polymerized tubulin (microtubules). Kind of series: Competitive binding test, [3H]paclitaxel. The settings on record: competitor 20 μM (5 μM for unlabeled paclitaxel). Further details: species or system bovine. As to the method:
as §1, §2
The reactions are then centrifuged at top speed in an Eppendorf 5415C microfuge for 20 min at room temperature in order to pellet the microtubule protein. Triplicate aliquots of each supernatant are mixed with scintillation fluid and counted in a liquid scintillation spectrometer. […] The ability of each competitor to inhibit radioligand binding to pelleted protein is expressed as a percent of controls without any competitor.

Where [6] appears, read: U87-MG glioblastoma, intravenously on day 1 with 5 mg/kg.

Marks after values point to notes of the source that are not given here.

Consider `CNCCCOc1cc(F)c(-c2c(Cl)nc(-c3cnccn3)nc2N[C@@H](C)C(F)(F)F)c(F)c1.Cl` [Example 24a, 6-Chloro-5-{2,6-difluoro-4-[3-(methylamino)propoxy]phenyl}-2-pyrazin-2-yl-N-[(1S)-2,2,2-trifluoro-1-methylethyl]pyrimidin-4-amine hygrogen chloride], for which the “T/C on day 0” value was determined as 1.0 in series [1] (5 mg/kg IV); 1.0 in series [1] (5 mg/kg PO); 1.0 in series [1] (10 mg/kg IV); 1.0 in series [1] (10 mg/kg PO); 1.03 in series [2] (1 mg/kg IV); 1.04 in series [2] (5 mg/kg IV). In series [2] (10 mg/kg IV), the “T/C on day 0” value was determined as 1.04. Besides, the “T/C on day 7” value in series [1] (5 mg/kg IV) was 0.24**; in series [1] (5 mg/kg PO), 1.07; in series [1] (10 mg/kg IV) it was “Toxic”; in series [1] (10 mg/kg PO) it was 0.82; in series [2] (1 mg/kg IV), 0.75; in series [2] (5 mg/kg IV), 0.21**. Further, in series [2] (10 mg/kg IV), the “T/C on day 7” value is “Toxic”. Besides, the entries for the “T/C on day 14” value in series [1] (5 mg/kg IV), in series [1] (5 mg/kg PO) and in series [1] (10 mg/kg PO) were “Toxic”, 0.85 and 0.28**, respectively. In series [1] (DLD1 colon carcinoma, orally on days 1 and 7 at 10 mg/kg/dose), the growth of tumor result is given as “inhibits the growth”. Moreover, the “T/C on day 3” value in series [2] (1 mg/kg IV) is recorded as 0.71*; in series [2] (5 mg/kg IV) it was 0.41**; in series [2] (10 mg/kg IV) it was 0.31**. Moreover, the results for the “T/C on day 10” value in series [2] (1 mg/kg IV) and in series [2] (5 mg/kg IV) were 0.86 and 0.17**, respectively. In addition, the compound toxicity entry in series [2] (setting [6]) is given as “some compound toxicity is also observed”. For the same compound, the growth of xenografts entry in series [2] (setting [6]) is given as “inhibits the growth”.
On to `CNCCCOc1cc(F)c(-c2c(Cl)nc(-c3ccccn3)nc2N[C@@H](C)C(F)(F)F)c(F)c1.Cl` [Example 29a, 6-Chloro-5-{2,6-difluoro-4-[3-(methylamino)propoxy]phenyl}-2-pyridin-2-yl-N-[(S)-2,2,2-trifluoro-1-methylethyl]pyrimidin-4-amine hydrogen chloride], for which the “T/C on day 0” value in series [1] (1 mg/kg IV), in series [1] (1 mg/kg PO), in series [1] (5 mg/kg IV) and in series [1] (5 mg/kg PO) was 1.0 in each case. In addition, the “T/C on day 7” value is 0.63* in series [1] (1 mg/kg IV), 1.40 in series [1] (1 mg/kg PO), 0.22** in series [1] (5 mg/kg IV) and 0.79 in series [1] (5 mg/kg PO). Moreover, the “T/C on day 14” value was 0.71* in series [1] (1 mg/kg IV), 1.02 in series [1] (1 mg/kg PO), “Toxic” in series [1] (5 mg/kg IV) and 0.59* in series [1] (5 mg/kg PO).
With `CC(=O)O[C@H]1C(=O)[C@@]2(C)[C@H]([C@H](OC(=O)c3ccccc3)[C@]3(O)C[C@H](OC(=O)[C@H](O)[C@@H](NC(=O)c4ccccc4)c4ccccc4)C(C)=C1C3(C)C)[C@]1(OC(C)=O)CO[C@@H]1C[C@@H]2O` [Paclitaxel, reference compound], the “[3H]Vinblastine binding, Mean” value in series [3] is listed as 92 % of control. In addition, the “[3H]Colchicine binding, Mean” value in series [4] is on record as 93 % of control. Moreover, in series [5], the “[3H]Paclitaxel binding, Mean” value is given as 35 % of control.
Turning to `CC[C@]1(O)C[C@H]2CN(CCc3c([nH]c4ccccc34)[C@@](C(=O)OC)(c3cc4c(cc3OC)N(C=O)[C@H]3[C@@](O)(C(=O)OC)[C@H](OC(C)=O)[C@]5(CC)C=CCN6CC[C@]43[C@@H]65)C2)C1` [Vincristine, reference compound], the “[3H]Vinblastine binding, Mean” value in series [3] is 5 % of control; in series [3] (listed as vincristine), “inhibits [^3H]vinblastine binding”. Further, in series [4], the “[3H]Colchicine binding, Mean” value is listed as 99 % of control.

(Values after patent US7524849B2, “5-arylpyrimidines as anticancer agents” (Wyeth Holdings Corporation, priority 2003, dated 2009).)
